Test results from PubChem BioAssay (NCI).
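Five compound concentrations were applied to cells in 96-well plates for 48 hours; endpoints were derived by simple linear interpolation of the resulting dose-response curve. GI50 = concentration required for 50% inhibition of growth. TGI is the concentration that stops growth completely.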

Assays:
Experiment in all cases: NCI-60 cell line screen, 48 h
COLO 205 colon = tested on: COLO 205 colon
HCT-15 colon = tested on: HCT-15 colon
KM12 colon = tested on: KM12 colon
NCI-H460 lung = tested on: NCI-H460 lung
OVCAR-5 ovarian = tested on: OVCAR-5 ovarian
SK-MEL-5 melanoma = tested on: SK-MEL-5 melanoma
SNB-75 CNS = tested on: SNB-75 CNS
SR leukemia = tested on: SR leukemia
DMS 273 small cell lung = tested on: DMS 273 small cell lung
M19-MEL melanoma = tested on: M19-MEL melanoma

| Compound | GI50 (COLO 205 colon) | TGI (COLO 205 colon) | GI50 (HCT-15 colon) | TGI (HCT-15 colon) | GI50 (KM12 colon) | TGI (KM12 colon) | GI50 (NCI-H460 lung) | TGI (NCI-H460 lung) | GI50 (OVCAR-5 ovarian) | TGI (OVCAR-5 ovarian) | GI50 (SK-MEL-5 melanoma) | TGI (SK-MEL-5 melanoma) | GI50 (SNB-75 CNS) | TGI (SNB-75 CNS) | GI50 (SR leukemia) | TGI (SR leukemia) | GI50 (DMS 273 small cell lung) | TGI (DMS 273 small cell lung) | GI50 (M19-MEL melanoma) | TGI (M19-MEL melanoma) |
| --- | --- | --- | --- | --- | --- | --- | --- | --- | --- | --- | --- | --- | --- | --- | --- | --- | --- | --- | --- | --- |
| COc1ccc2c(c1)/C(=N/OC(C)=O)c1c-2c(=O)[nH]c2ccccc12 | 12.2 µM | 31.7 µM | 16.1 µM | 38.1 µM | 3.84 µM | 19.6 µM | 59 µM | > 100 µM | 11.5 µM | 24.5 µM | 5.79 µM | 19.4 µM | 11.1 µM | 25.9 µM | 6.63 µM | 33.1 µM | – | – | – | – |
| NC1=Nc2cc(OCCCN3Cc4ccccc4C3)c(OCC3CC3)cc2C12CCCC2 | 1.59 µM | 3.29 µM | 2.1 µM | 6.51 µM | 4.04 µM | 15.5 µM | 2.02 µM | 4.67 µM | 5.99 µM | 19.1 µM | 1.67 µM | 3.04 µM | 1.07 µM | 7.97 µM | 1.94 µM | 5.02 µM | – | – | – | – |
| C1=Nc2ccccc2C=Nc2ccccc2C=Nc2ccccc2C=Nc2ccccc21.[Cl-].[Pt+2] | 17.3 µM | 51.4 µM | 22.3 µM | 83.1 µM | – | – | 25.7 µM | > 100 µM | – | – | 18.8 µM | 48.3 µM | – | – | – | – | 19 µM | 55.5 µM | 22.2 µM | > 100 µM |
| CCSc1nnc(-c2ccc3ccccc3c2O)n1-c1ccc(Cl)cc1 | 47.4 µM | > 100 µM | 3.13 µM | > 100 µM | > 100 µM | > 100 µM | 3.27 µM | > 100 µM | > 100 µM | > 100 µM | 6.01 µM | > 100 µM | 65.1 µM | > 100 µM | 3.86 µM | > 100 µM | – | – | – | – |
| COc1cc2c(cn1)[nH]c1ccccc12 | – | > 100 µM | – | > 100 µM | – | > 100 µM | – | > 100 µM | – | > 100 µM | – | > 100 µM | – | > 100 µM | – | > 100 µM | – | > 100 µM | – | – |
| COc1cc(Nc2nc3ccc(C(F)(F)F)cc3nc2-c2ccccc2)cc(OC)c1OC | – | – | – | > 100 µM | – | > 100 µM | – | 32.3 µM | – | 53.1 µM | – | 59.4 µM | – | > 100 µM | – | > 100 µM | – | > 100 µM | – | – |
| Cn1c(=O)c(Oc2ccccc2)cc2cnc(NC3CCOCC3)nc21 | > 25 µM | > 25 µM | > 25 µM | > 25 µM | > 25 µM | > 25 µM | > 25 µM | > 25 µM | > 25 µM | > 25 µM | > 25 µM | > 25 µM | > 25 µM | > 25 µM | > 25 µM | > 25 µM | – | – | – | – |
| Cc1ccc(Sc2sc(-c3ccccc3)nc2[P+](c2ccccc2)(c2ccccc2)c2ccccc2)cc1 | 0.195 µM | 0.412 µM | 0.3 µM | 1.14 µM | 0.314 µM | 1.09 µM | 0.314 µM | 1.09 µM | 0.4 µM | 1.45 µM | 0.172 µM | 0.313 µM | 0.21 µM | 0.759 µM | 0.368 µM | 3.77 µM | – | – | – | – |
| COc1ccc2c(c1)/C(=C/c1cc(OC)c(OC)c(OC)c1)C(=O)N2C | 1.83 µM | 3.68 µM | 2.12 µM | > 35.6 µM | 1.76 µM | 4.95 µM | 2.46 µM | 7.02 µM | 5.49 µM | > 100 µM | 2.76 µM | 12.6 µM | 2.29 µM | > 21.4 µM | 0.634 µM | 3.28 µM | – | – | – | – |
| COc1ccc2c(c1)C1(C(=O)N2)C(C#N)=C(c2ccccc2)Nc2c1c(-c1ccccc1)nn2-c1ccccc1 (stereo not drawn) | 2.42 µM | 5.83 µM | 11 µM | 26.8 µM | 2.66 µM | 7.26 µM | 1.98 µM | 3.75 µM | 5.46 µM | 19.8 µM | 2.4 µM | 6.62 µM | 1.39 µM | 3.43 µM | 3.08 µM | 8.65 µM | – | – | – | – |
| COc1ccc(N(C)c2c3ccccc3nc3[nH]c4ccccc4c23)cc1 | 0.347 µM | 6.13 µM | 2.29 µM | 9.3 µM | 0.296 µM | 1.24 µM | 0.151 µM | 7.12 µM | 0.917 µM | 4.57 µM | 0.835 µM | 2.24 µM | 5.19 µM | 23.6 µM | 0.186 µM | 50 µM | – | – | – | – |
| CSc1ncnc2c1CCN2 | > 100 µM | > 100 µM | – | > 100 µM | > 100 µM | > 100 µM | – | – | – | – | > 100 µM | > 100 µM | – | – | – | – | – | – | – | > 100 µM |
| C1COCCOCCOCCOCCO1.CC(=O)[CH-]C(C)=O.CC(=O)[CH-]C(C)=O.CC(=O)[CH-]C(C)=O.[V] | 18.7 µM | 35.1 µM | 20.7 µM | 57.9 µM | 16.8 µM | 37 µM | 22.7 µM | 99.4 µM | – | – | 2.47 µM | 12.8 µM | 10.6 µM | 23 µM | – | – | 15.7 µM | 34.8 µM | – | – |
| CNCCCNCCCN1C(=O)c2ccc3c4c(ccc(c24)C1=O)C(=O)N(CCCNCc1ccccc1OC)C3=O | 0.498 µM | 1.85 µM | 2.36 µM | 12.2 µM | 1.18 µM | 3.36 µM | 0.429 µM | 2.86 µM | 1.25 µM | 4.14 µM | 1.1 µM | 2.32 µM | 1.11 µM | 2.51 µM | 0.27 µM | 2.45 µM | – | – | – | – |
| O=C(NCc1ccncc1)C1COc2cc(-c3cc(=O)c4ccccc4o3)ccc2O1 (stereo not drawn) | – | – | – | > 100 µM | – | > 100 µM | – | > 100 µM | – | > 100 µM | – | > 100 µM | – | > 100 µM | – | > 100 µM | – | – | – | > 100 µM |
